Experimental findings from patent US6004983A, “N-substituted azaheterocyclic compounds” (Novo Nordisk A/S, priority 1996, dated 1999) are described below.

The assay relates to histamine induced oedema. The experiment in a line: Histamine induced paw oedema (rat histamine paw oedema test). Type of assay: in vivo, rat (male Sprague-Dawley). To be noted: at 1 mg/kg, intraperitoneally 15 minutes before the anaesthetics, histamine 50 microliter, 3 mg/ml in right hind paw, swelling 20 minutes after histamine. As for the experimental part:
Compounds of formula I may be used to treat all painful, hyperalgesic and/or inflammatory conditions in which C-fibres play a pathophysiological role by eliciting neurogenic pain or inflammation, i. e.:
I. Histamine induced paw oedema
The rat histamine paw oedema test was performed essentially as described by Amann et al. (Europ. J. Pharmacol. 279, 227-231, 1995). In brief 250-300 g male Sprague-Dawley rats were anaesthetized with pentobarbital sodium, and placed on a 32 degree(Celsius) heated table. Ten minutes later histamine (50 micoliter, 3 mg/ml) was injected in the right hind paw and 20 minutes hereafter the paw swelling was determined by water plethysmography (Ugo Basile). Test compounds were administered intraperitoneally at 15 minutes before the anaesthetics.

Regarding `Cl.O=C(O)C1CCN(CC=C2c3ccccc3CSc3ccccc32)CC1` [Example 2, 1-(2-(6,11-Dihydrodibenzo[b,e]thiepin-11-ylidene)-1-ethyl)-4-piperidinecarboxylic acid hydrochloride], the “% oedema inhibition (inhibition of histamine induced oedema)” value amounted to 51%.

In the case of `Cl.O=C(O)[C@H]1CCCCN1CC=C1c2ccccc2CCc2ccccc21` [Example 12, (R)-1-(2-(10,11-dihydro-5H-dibenzo[a,d]cyclohepten-5-ylidene)-1-ethyl)-2-piperidinecarboxylic acid hydrochloride], the “% oedema inhibition (inhibition of histamine induced oedema)” value was 49%.
